PMC5185321 (Journal of medicinal chemistry, 2015)

Assays:
ALDH2 = settings: read-out: ALDH2 inhibition; cited from earlier work
cocaine-seeking behavior = settings: cited from earlier work
human ALDH2 = biological target: T1, human ALDH2 (Homo sapiens, UniProt P05091); assay: ALDH enzymatic assay, ALDH2; format: biochemical
T1 sequence (P05091 18-517): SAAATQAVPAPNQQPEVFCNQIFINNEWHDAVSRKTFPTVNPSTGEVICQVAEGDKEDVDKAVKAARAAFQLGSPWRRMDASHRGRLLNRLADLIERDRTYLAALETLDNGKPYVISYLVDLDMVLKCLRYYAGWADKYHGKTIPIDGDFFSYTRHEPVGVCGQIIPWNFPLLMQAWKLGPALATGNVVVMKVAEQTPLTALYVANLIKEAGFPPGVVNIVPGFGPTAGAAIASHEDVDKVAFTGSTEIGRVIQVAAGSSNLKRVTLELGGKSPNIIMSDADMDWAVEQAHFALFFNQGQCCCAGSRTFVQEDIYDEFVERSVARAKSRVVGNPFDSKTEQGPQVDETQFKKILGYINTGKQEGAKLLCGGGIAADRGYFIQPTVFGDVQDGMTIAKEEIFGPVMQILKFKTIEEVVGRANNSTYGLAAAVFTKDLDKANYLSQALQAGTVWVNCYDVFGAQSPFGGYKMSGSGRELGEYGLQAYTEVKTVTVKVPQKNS

[1] = High-throughput RLM stability; format: in vitro ADME; settings: rat, rat liver microsomes, pH 7.4
hALDH1A1 [2] = biological target: T2, hALDH1A1 (Homo sapiens, UniProt P00352); assay: Primary qHTS against hALDH1A1; format: biochemical
T2 sequence (P00352 1-501): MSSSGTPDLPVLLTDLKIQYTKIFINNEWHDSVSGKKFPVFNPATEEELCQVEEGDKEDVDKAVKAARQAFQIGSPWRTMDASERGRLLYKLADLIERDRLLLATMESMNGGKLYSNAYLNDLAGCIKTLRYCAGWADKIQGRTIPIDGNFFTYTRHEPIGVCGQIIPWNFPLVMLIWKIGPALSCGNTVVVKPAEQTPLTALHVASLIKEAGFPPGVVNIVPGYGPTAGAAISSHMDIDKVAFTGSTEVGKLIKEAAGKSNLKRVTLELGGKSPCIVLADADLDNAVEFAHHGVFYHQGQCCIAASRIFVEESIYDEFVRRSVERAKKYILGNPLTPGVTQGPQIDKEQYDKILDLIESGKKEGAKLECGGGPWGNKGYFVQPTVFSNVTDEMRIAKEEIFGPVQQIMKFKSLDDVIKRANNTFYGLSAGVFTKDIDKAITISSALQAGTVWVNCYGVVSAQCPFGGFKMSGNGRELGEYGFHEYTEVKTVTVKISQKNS

physchem = settings: aqueous medium at pH 7.4, pH 7.4, aqueous buffer, kinetic from dmso stock
hALDH1A1 [3] = biological target: T2, hALDH1A1; assay: biochemical
human ALDH1B1 = biological target: T3, human ALDH1B1 (Homo sapiens, UniProt P30837); assay: biochemical
T3 sequence (P30837 18-517): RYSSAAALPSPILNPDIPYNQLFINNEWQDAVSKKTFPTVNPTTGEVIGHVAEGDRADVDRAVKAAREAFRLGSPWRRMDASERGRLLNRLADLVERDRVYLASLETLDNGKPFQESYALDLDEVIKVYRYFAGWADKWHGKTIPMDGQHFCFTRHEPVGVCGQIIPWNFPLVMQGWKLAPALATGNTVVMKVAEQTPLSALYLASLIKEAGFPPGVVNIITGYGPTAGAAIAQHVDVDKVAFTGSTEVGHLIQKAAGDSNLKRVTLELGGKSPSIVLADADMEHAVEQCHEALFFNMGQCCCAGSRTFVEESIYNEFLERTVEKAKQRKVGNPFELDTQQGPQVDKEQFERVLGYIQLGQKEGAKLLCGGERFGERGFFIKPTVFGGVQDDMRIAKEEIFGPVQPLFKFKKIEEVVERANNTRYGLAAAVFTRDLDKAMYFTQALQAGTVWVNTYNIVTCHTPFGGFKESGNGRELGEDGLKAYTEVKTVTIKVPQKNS

[4] = Pharmacokinetics in CD1 mice; format: in vivo; settings: CD1, mouse
[5] = CD1 mouse liver microsomal stability; format: in vitro ADME; settings: mouse liver microsomes
Plasma protein binding = format: in vitro ADME
[6] = In vitro stability in CD1 mouse plasma; format: in vitro ADME
Caco-2 permeability = format: in vitro ADME; settings: human
[7] = test system: more than 450 human kinases; assay: DiscoveRx KINOMEscan off-target kinase profiling; format: binding; settings: 10 µM, hit = inhibition of ≥55%
[8] = test system: 168 GPCRs covering 60 receptor families; assay: gpcrMAX panel profiling; format: cell-based; settings: agonist and antagonist mode
[9] = Multipoint rat liver microsomal stability; format: in vitro ADME
[10] = microsomes

## CS(=O)(=O)Nc1ccc(-c2coc3cc(OCc4cccc(C(=O)O)c4)ccc3c2=O)cc1 [Compound 1]
ALDH2
  IC50: 29 nM
cocaine-seeking behavior
  reduction of cocaine-seeking behavior: demonstrated activity in the reduction of cocaine-seeking behavior

## CCOC(=O)N1CCN(Cc2nc3c(c(=O)n(C)c(=O)n3C)n2Cc2cccc(C)c2)CC1 [Compound 5, ethyl 4-((1,3-dimethyl-7-(3-methylbenzyl)-2,6-dioxo-2,3,6,7-tetrahydro-1H-purin-8-yl)methyl)piperazine-1-carboxylate]
Human ALDH2
  IC50: 2400 nM
[1]
  half-life at 1 µM: 5 min
hALDH1A1 [2]
  IC50: 84 nM
physchem
  solubility: > 62 µg/mL
hALDH1A1 [3]
  IC50: 40 ± 5 nM
Human ALDH1B1
  IC50: > 57000 nM

## CCOC(=O)N1CCN(c2nc3c(c(=O)n(C)c(=O)n3C)n2Cc2cccc(C)c2)CC1 [Compound 11, Ethyl 4-(1,3-Dimethyl-7-(3-methylbenzyl)-2,6-dioxo-2,3,6,7-tetrahydro-1H-purin-8-yl)piperazine-1-carboxylate]
[1]
  half-life at 1 µM: 2 min
hALDH1A1 [3]
  IC50: 570 ± 156 nM

## CNC(=O)c1ccc(Oc2nc3c(c(=O)n(C)c(=O)n3C)n2Cc2cccc(C)c2)cc1 [Compound 12, 4-((1,3-dimethyl-7-(3-methylbenzyl)-2,6-dioxo-2,3,6,7-tetrahydro-1H-purin-8-yl)oxy)-N-methylbenzamide]
Human ALDH2
  IC50: 6100 nM
[1]
  half-life at 1 µM: 8 min
physchem
  solubility: < 1 µg/mL
hALDH1A1 [3]
  IC50: 57 nM
Human ALDH1B1
  IC50: > 57000 nM

## Cc1cccc(Cn2c(OC3CCNCC3)nc3c2c(=O)n(C)c(=O)n3C)c1 [Compound 14, 1,3-dimethyl-7-(3-methylbenzyl)-8-(piperidin-4-yloxy)-1H-purine-2,6(3H,7H)-dione]
[1]
  half-life at 1 µM: 21 min
hALDH1A1 [3]
  IC50: 13700 ± 4900 nM

## Cc1cccc(Cn2c(OC3CCN(c4nccc(C)n4)CC3)nc3c2c(=O)n(C)c(=O)n3C)c1 [Compound 19, 1,3-dimethyl-7-(3-methylbenzyl)-8-((1-(4-methylpyrimidin-2-yl)-piperidin-4-yl)oxy)-1H-purine-2,6(3H,7H)-dione]
[1]
  half-life at 1 µM: 1 min
hALDH1A1 [3]
  IC50: 19200 ± 3300 nM

## Cn1c(=O)c2c(nc(OC3CCN(C(=O)C4CC4)CC3)n2Cc2ccccc2)n(C)c1=O [Compound 21, 7-benzyl-8-((1-(cyclopropanecarbonyl)piperidin-4-yl)oxy)-1,3-dimethyl-1H-purine-2,6(3H,7H)-dione]
[1]
  half-life at 1 µM: > 30 min
hALDH1A1 [3]
  IC50: 214 ± 28 nM

## Cn1c(=O)c2[nH]c(OC3CCN(C(=O)C4CC4)CC3)nc2n(C)c1=O [Compound 22, 8-((1-(cyclopropanecarbonyl)piperidin-4-yl)oxy)-1,3-dimethyl-1H-purine-2,6(3H,7H)-dione]
[1]
  half-life at 1 µM: > 30 min
hALDH1A1 [3]
  IC50: 25100 ± 5900 nM

## Cc1cccc(Cn2c(OC3CCN(C(=O)C4CC4)CC3)nc3c2c(=O)n(C)c(=O)n3C)c1 [Compound 34, 8-((1-(cyclopropanecarbonyl)piperidin-4-yl)oxy)-1,3-dimethyl-7-(3-methylbenzyl)-1H-purine-2,6(3H,7H)-dione]
Human ALDH2
  IC50: 15300 nM
[1]
  half-life at 1 µM: 4 min
hALDH1A1 [3]
  IC50: 84 ± 14 nM
Human ALDH1B1
  IC50: > 57000 nM

## Cn1c(=O)c2c(nc(OC3CCN(C(=O)C4CC4)CC3)n2CCc2ccccc2)n(C)c1=O [Compound 39, 8-((1-(cyclopropanecarbonyl)piperidin-4-yl)oxy)-1,3-dimethyl-7-phenethyl-1H-purine-2,6(3H,7H)-dione]
[1]
  half-life at 1 µM: 14 min
hALDH1A1 [3]
  IC50: 629 ± 179 nM

## Cn1c(=O)c2c(nc(OC3CCN(C(=O)C4CC4)CC3)n2CCC2CCCCC2)n(C)c1=O [Compound 54, 7-(2-cyclohexylethyl)-8-((1-(cyclopropanecarbonyl)piperidin-4-yl)oxy)-1,3-dimethyl-1H-purine-2,6(3H,7H)-dione]
[1]
  half-life at 1 µM: 1 min
hALDH1A1 [3]
  IC50: 30 ± 12 nM

## CC(C)CCn1c(CN2CCN(C(=O)C3CC3)CC2)nc2c1c(=O)n(C)c(=O)n2C [Compound 64, 8-((4-(cyclopropanecarbonyl)piperazin-1-yl)methyl)-7-isopentyl-1,3-dimethyl-1H-purine-2,6(3H,7H)-dione]
[1]
  half-life at 1 µM: > 30 min
[4]; brain, po, 10 mg/kg
  AUC(0-t): 261 ng·h/mL
  Cmax: 1130 ng/mL
  half-life: 24 min
[4]; liver, po, 10 mg/kg
  AUC(0-t): 1880 ng·h/mL
  Cmax: 2690 ng/mL
  half-life: 24 min
[4]; plasma, intravenous, oral, intraperitoneal
  half-life: < 60 min
[4]; plasma, ip, 30 mg/kg
  AUC(0-t): 5670 ng·h/mL
  Cmax: 8080 ng/mL
  bioavailability: 100%
  half-life: 42 min
[4]; plasma, iv, 2 mg/kg
  AUC(0-t): 332 ng·h/mL
  C0: 2070 ng/mL
  Vd: 1.8 L/kg
  clearance: 98 mL/min/kg
  half-life: 30 min
[4]; plasma, po, 10 mg/kg
  AUC(0-t): 484 ng·h/mL
  Cmax: 696 ng/mL
  bioavailability: 29%
  half-life: 24 min
[5]
  half-life: 17 min
Plasma protein binding
  plasma protein binding: 68.6 % bound
[6]
  in vitro stability in CD1 mouse plasma: > 60 min
Caco-2 permeability
  Papp A→B: 19.3 ×10⁻⁶ cm/s
  Papp B→A: 19.6 ×10⁻⁶ cm/s
[7]
  off-target kinase activity (KINOMEscan): no significant hits
[8]
  gpcrMAX off-target activity: very little activity in either agonist or antagonist mode
[9]
  multipoint rat liver microsomal stability: 84 min
[10]
  human liver microsomal stability (HLM): > 120 min
Human ALDH1B1
  IC50: > 57000 nM
